The target of this test is T1, human full-length recombinant PKC βII (Homo sapiens, UniProt P05771).
T1 construct: Active human full-length recombinant PKC βII; purchased Invitrogen GmbH, Darmstadt, Germany
The test is described as follows: Determination of PKC βII inhibition (Caliper mobility-shift kinase assay, Fluorescein-RFARKGSLRQKNV peptide substrate). In kind it is biochemical. To be noted: example compounds at a final concentration of 1.14 μM (±0.15 μM). In a few lines: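 Full-length PKC βII (30 ng/ml in pre-dilution) with PS/DAG/Ca2+ activators, pH 7.4; fluorescein peptide and ATP at 3 μM and 120 μM before mixing. Reaction ran 60 min at 32 °C, was EDTA-stopped, and was read by mobility shift. % inhibition came from product/(substrate+product) peak heights, tested at 1.14 μM final.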

Structures are written as SMILES.

T1 sequence (P05771 1-673 isoform P05771-2): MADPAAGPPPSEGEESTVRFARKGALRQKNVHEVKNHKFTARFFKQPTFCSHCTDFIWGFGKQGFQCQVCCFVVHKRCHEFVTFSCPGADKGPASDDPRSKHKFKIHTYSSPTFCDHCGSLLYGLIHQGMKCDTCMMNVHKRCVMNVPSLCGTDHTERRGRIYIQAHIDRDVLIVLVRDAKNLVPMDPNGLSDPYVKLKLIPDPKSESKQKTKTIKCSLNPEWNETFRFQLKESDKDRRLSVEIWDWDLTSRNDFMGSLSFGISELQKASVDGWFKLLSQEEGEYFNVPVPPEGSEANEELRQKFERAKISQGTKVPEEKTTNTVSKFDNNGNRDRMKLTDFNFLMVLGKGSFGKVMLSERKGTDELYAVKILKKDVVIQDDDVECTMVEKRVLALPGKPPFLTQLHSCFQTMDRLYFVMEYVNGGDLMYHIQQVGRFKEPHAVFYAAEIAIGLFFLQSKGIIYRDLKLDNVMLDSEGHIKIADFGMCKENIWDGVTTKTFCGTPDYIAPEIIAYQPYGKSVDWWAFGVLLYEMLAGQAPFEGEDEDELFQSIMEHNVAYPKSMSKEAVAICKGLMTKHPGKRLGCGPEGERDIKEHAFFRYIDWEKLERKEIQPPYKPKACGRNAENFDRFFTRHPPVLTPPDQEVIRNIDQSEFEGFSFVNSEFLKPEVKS

On to `Cc1n[nH]c2nc(-c3ccc(O)cc3F)cc(C(=O)N3CCNCC34CCC4)c12` [Example 439, (5,8-Diaza-spiro[3.5]non-5-yl)-[6-(2-fluoro-4-hydroxy-phenyl)-3-methyl-1H-pyrazolo[3,4-b]pyridin-4-yl]-methanone], for which the inhibition (in general, the change of the read-out against control, counted positive when it falls) at 1.14 µM came to 99%.

Take `Cc1n[nH]c2nc(-c3ccc(O)cc3F)cc(C(=O)NC3(c4ccccc4)CCNCC3)c12` [Example 440, 6-(2-Fluoro-4-hydroxy-phenyl)-3-methyl-1H-pyrazolo[3,4-b]pyridine-4-carboxylic acid (4-phenyl-piperidin-4-yl)-amide]: the inhibition at 1.14 µM came out at 90%.

As to `CCCC1CN(C(=O)c2cc(-c3ccc(O)cc3F)nc3[nH]nc(C)c23)C(CCC)CN1` (stereo not drawn) [Example 441, (2,5-Dipropyl-piperazin-1-yl)-[6-(2-fluoro-4-hydroxy-phenyl)-3-methyl-1H-pyrazolo[3,4-b]pyridin-4-yl]-methanone], the inhibition at 1.14 µM amounted to 96%.

As for `Cc1n[nH]c2nc(-c3ccc(O)cc3F)cc(C(=O)N3CCN[C@H]4CCCC[C@@H]43)c12` [Example 443, [6-(2-Fluoro-4-hydroxy-phenyl)-3-methyl-1H-pyrazolo[3,4-b]pyridin-4-yl]-(4aS,8aS)-octahydro-quinoxalin-1-yl-methanone], the inhibition at 1.14 µM amounted to 97%.

As to `Cc1n[nH]c2nc(-c3ccc(O)cc3F)cc(C(=O)N3C(C)CNCC3C)c12` (stereo not drawn) [Example 444, (2,6-Dimethyl-piperazin-1-yl)-[6-(2-fluoro-4-hydroxy-phenyl)-3-methyl-1H-pyrazolo[3,4-b]pyridin-4-yl]-methanone], the inhibition at 1.14 µM is 99%.

For `CCC1CN(C(=O)c2cc(-c3ccc(O)cc3F)nc3[nH]nc(C)c23)C(CC)CN1` (stereo not drawn) [Example 445, (2,5-Diethyl-piperazin-1-yl)-[6-(2-fluoro-4-hydroxy-phenyl)-3-methyl-1H-pyrazolo[3,4-b]pyridin-4-yl]-methanone], the inhibition at 1.14 µM turned out to be 99%.

Turning to `CC[C@@H]1CN(C(=O)c2cc(-c3ccc(O)cc3F)nc3[nH]nc(C)c23)[C@@H](C)CN1` [Example 446, ((2S,5R)-5-Ethyl-2-methyl-piperazin-1-yl)-[6-(2-fluoro-4-hydroxy-phenyl)-3-methyl-1H-pyrazolo[3,4-b]pyridin-4-yl)-methanone], the inhibition at 1.14 µM is 98%.

Turning to `CCC[C@@H]1CN(C(=O)c2cc(-c3ccc(O)cc3F)nc3[nH]nc(C)c23)[C@@H](C)CN1` [Example 448, [6-(2-Fluoro-4-hydroxy-phenyl)-3-methyl-1H-pyrazolo[3,4-b]pyridin-4-yl]-((2S,5R)-2-methyl-5-propyl-piperazin-1-yl)-methanone], the inhibition at 1.14 µM amounted to 99%.

Take `CCC1(C)CNC(C)(C)CN1C(=O)c1cc(-c2ccc(O)cc2F)nc2[nH]nc(C)c12` (stereo not drawn) [Example 449, (2-Ethyl-2,5,5-trimethyl-piperazin-1-yl)-[6-(2-fluoro-4-hydroxy-phenyl)-3-methyl-1H-pyrazolo[3,4-b]pyridin-4-yl]-methanone]: the inhibition at 1.14 µM worked out at 99%.

Take `CCC1(CC)CNC(C)(C)CN1C(=O)c1cc(-c2ccc(O)cc2F)nc2[nH]nc(C)c12` [Example 450, (2,2-Diethyl-5,5-dimethyl-piperazin-1-yl)-[6-(2-fluoro-4-hydroxy-phenyl)-3-methyl-1H-pyrazolo[3,4-b]pyridin-4-yl]-methanone]: the inhibition at 1.14 µM was found to be 100%.

Take `Cc1n[nH]c2nc(-c3ccc(O)cc3F)cc(C(=O)N3CC4(CCCC4)NCC3(C)C)c12` [Example 451, (8,8-Dimethyl-6,9-diaza-spiro[4.5]dec-9-yl)-[6-(2-fluoro-4-hydroxy-phenyl)-3-methyl-1H-pyrazolo[3,4-b]pyridin-4-yl]-methanone]: the inhibition at 1.14 µM was determined as 104%.

Consider `Cc1n[nH]c2nc(-c3ccc(O)cc3F)cc(C(=O)N3C[C@@H](C)N(Cc4ccccn4)C[C@@H]3C)c12` [Example 452, ((2S,5R)-2,5-Dimethyl-4-pyridin-2-ylmethyl-piperazin-1-yl)-[6-(2-fluoro-4-hydroxy-phenyl)-3-methyl-1H-pyrazolo[3,4-b]pyridin-4-yl]-methanone], for which the inhibition at 1.14 µM came to 83%.

These data come from patent US8686150B2 (Sanofi, priority 2011, dated 2014).
